Data: article PMC3471820, “The CoxD Protein, a Novel AAA+ ATPase Involved in Metal Cluster Assembly: Hydrolysis of Nucleotide-Triphosphates and Oligomerization” (PLoS ONE, 2012)

Tests used:
CoxD [1] = biological target: T1, CoxD (Afipia carboxidovorans, UniProt Q51326); test: GTP hydrolysis, inorganic phosphate release; assay type: biochemical; details: 100 mM Tris/acetate pH 8.0, 1 mM Na2GTP, 1 mM Mg-acetate, 25 °C; weak side activity
T1 construct: mainly hexamer, also dimer and tetramer (homo-oligomer)
T1 sequence (Q51326 1-295): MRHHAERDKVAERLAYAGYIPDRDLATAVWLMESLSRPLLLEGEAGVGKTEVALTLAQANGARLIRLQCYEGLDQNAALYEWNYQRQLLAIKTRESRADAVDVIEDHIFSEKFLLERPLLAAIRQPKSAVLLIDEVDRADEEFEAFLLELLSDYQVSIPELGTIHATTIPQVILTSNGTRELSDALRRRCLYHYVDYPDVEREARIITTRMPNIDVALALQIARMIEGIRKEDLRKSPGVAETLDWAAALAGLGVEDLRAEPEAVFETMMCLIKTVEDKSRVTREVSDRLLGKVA

CoxD [2] = biological target: T1, CoxD; test: inhibition of ATP hydrolysis, ADP release; assay type: biochemical; details: 100 mM Tris/acetate pH 8.0, 1 mM Mg-acetate, 25 °C; refolded enzyme; 1 mM ATP; competes with ATP; slowly hydrolysable analogue
purified protein = substrate: Nc1ncnc2c1ncn2[C@@H]1O[C@H](COP(=O)(O)OP(=O)(O)OP(=O)(O)O)[C@@H](O)[C@H]1O; test: purified protein; details: 100 mM Tris/acetate pH 8.0, 1 mM Mg-acetate, 25 °C, refolded enzyme

## Nc1nc2c(ncn2[C@@H]2O[C@H](COP(=O)(O)OP(=O)(O)OP(=O)(O)O)[C@@H](O)[C@H]2O)c(=O)[nH]1 [GTP]
CoxD [1]
  GTP hydrolysis, inorganic phosphate release: formed from GTP

## Nc1ncnc2c1ncn2[C@@H]1O[C@H](COP(=O)(O)OP(=O)(O)OP(O)(O)=S)[C@@H](O)[C@H]1O [ATP-γ-S]
CoxD [2]
  inhibition of ATP hydrolysis (qualitative): It very effectively competed with ATP for CoxD

B1: CoxD (Afipia carboxidovorans OM5) (protein)
chain: T1 sequence (Q51326 1-295)
Purified protein
  Km: 690 ± 140 µM
